Laboratory results from patent US12258327B2, “5-membered heteroaryl-containing aminopyridine compounds as EGFR inhibitors” (YUHAN CORPORATION, priority 2021, dated 2025).
Where two headings read alike, the source gives them in different places.

Assays:
[1] = target: EGFR L858R/C797S (Homo sapiens, UniProt P00533, C797S/L858R); assay: Biochemical EGFR kinase assay (Lance Ultra TR-FRET), double mutant L858R/C797S
Outline: (§1)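 Enzyme reactions lasted 1 hour at room temperature with test compounds between 0.003 and 10 μM, followed by 10 mM EDTA quench.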

[2] = target: EGFR wildtype (WT) (Homo sapiens, UniProt P00533); assay: Biochemical EGFR kinase assay (Lance Ultra TR-FRET), wildtype
Chain of EGFR wildtype (WT) (P00533 25-1210): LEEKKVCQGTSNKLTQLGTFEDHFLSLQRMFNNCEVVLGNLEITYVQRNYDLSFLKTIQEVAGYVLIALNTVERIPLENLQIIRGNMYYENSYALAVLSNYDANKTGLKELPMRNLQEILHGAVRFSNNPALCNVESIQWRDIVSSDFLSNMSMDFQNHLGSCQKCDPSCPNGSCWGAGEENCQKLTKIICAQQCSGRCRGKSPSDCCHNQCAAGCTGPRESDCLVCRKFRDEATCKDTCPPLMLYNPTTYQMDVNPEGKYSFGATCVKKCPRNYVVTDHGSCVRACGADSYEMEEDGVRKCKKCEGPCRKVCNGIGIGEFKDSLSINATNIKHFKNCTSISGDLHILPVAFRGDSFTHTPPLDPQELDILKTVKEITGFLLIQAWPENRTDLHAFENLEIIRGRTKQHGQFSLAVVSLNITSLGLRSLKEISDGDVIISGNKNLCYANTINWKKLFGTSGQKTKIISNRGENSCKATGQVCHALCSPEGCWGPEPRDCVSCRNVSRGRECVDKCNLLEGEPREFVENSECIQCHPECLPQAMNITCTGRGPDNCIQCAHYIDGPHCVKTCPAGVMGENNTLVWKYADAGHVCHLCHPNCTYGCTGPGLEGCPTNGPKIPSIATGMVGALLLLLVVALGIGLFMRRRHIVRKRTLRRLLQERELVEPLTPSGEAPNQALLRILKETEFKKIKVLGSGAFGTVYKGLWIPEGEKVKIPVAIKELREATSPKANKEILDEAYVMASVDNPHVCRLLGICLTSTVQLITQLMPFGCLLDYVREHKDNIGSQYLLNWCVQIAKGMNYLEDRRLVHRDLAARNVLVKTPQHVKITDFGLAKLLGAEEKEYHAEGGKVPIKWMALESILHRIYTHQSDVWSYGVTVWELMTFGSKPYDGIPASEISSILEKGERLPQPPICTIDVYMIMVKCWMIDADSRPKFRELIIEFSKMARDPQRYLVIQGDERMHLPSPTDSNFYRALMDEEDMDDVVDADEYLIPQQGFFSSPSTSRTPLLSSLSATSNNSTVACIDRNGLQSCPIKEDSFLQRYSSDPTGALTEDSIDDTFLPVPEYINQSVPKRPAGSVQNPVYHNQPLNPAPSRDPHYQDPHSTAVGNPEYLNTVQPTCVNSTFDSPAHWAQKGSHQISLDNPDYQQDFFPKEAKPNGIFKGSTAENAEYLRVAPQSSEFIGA
Outline: as §1

[3] = target: EGFR L858R/T790M/C797S (Homo sapiens, UniProt P00533, C797S/L858R/T790M); assay: Biochemical EGFR kinase assay (Lance Ultra TR-FRET), triple mutant L858R/T790M/C797S
Chain of EGFR L858R/T790M/C797S (P00533 25-1210 T790M/C797S/L858R): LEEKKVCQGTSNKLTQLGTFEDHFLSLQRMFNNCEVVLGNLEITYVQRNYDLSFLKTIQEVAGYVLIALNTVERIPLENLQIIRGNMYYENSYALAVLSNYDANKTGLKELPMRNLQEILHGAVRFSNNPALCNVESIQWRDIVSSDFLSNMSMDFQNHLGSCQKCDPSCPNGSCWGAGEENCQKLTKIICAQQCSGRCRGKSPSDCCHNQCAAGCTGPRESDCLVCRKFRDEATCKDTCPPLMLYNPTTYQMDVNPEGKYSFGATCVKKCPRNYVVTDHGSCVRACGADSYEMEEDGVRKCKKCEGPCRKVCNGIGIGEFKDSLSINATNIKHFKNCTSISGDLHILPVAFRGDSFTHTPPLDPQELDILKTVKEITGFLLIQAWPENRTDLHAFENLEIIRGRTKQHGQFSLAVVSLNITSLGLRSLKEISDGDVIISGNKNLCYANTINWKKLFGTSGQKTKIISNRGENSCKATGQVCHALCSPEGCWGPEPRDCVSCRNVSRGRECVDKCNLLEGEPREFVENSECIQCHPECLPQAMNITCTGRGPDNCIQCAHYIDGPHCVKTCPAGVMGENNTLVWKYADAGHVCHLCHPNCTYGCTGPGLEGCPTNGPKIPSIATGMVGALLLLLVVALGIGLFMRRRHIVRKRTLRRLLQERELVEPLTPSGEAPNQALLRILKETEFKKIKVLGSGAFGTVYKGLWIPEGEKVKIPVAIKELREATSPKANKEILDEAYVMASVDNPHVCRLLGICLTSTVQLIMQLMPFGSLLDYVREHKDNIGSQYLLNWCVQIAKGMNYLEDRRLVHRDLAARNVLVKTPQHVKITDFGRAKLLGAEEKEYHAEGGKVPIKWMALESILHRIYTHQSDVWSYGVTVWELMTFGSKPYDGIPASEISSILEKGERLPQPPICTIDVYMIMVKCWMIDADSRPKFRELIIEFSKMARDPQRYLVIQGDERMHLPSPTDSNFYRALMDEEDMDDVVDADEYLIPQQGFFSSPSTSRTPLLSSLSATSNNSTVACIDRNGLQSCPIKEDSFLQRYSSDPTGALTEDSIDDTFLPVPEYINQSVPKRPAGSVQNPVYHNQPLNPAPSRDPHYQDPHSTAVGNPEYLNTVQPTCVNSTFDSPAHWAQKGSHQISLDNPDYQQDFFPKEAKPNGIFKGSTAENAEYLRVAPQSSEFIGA
Outline: as §1

[4] = target: EGFR del19/T790M/C797S (Homo sapiens, UniProt P00533, C797S/DEL746-750/T790M); assay: Biochemical EGFR kinase assay (Lance Ultra TR-FRET), triple mutant del19/T790M/C797S
Chain of EGFR del19/T790M/C797S (P00533 with tags, fused parts or gaps DEL746-750/T790M/C797S): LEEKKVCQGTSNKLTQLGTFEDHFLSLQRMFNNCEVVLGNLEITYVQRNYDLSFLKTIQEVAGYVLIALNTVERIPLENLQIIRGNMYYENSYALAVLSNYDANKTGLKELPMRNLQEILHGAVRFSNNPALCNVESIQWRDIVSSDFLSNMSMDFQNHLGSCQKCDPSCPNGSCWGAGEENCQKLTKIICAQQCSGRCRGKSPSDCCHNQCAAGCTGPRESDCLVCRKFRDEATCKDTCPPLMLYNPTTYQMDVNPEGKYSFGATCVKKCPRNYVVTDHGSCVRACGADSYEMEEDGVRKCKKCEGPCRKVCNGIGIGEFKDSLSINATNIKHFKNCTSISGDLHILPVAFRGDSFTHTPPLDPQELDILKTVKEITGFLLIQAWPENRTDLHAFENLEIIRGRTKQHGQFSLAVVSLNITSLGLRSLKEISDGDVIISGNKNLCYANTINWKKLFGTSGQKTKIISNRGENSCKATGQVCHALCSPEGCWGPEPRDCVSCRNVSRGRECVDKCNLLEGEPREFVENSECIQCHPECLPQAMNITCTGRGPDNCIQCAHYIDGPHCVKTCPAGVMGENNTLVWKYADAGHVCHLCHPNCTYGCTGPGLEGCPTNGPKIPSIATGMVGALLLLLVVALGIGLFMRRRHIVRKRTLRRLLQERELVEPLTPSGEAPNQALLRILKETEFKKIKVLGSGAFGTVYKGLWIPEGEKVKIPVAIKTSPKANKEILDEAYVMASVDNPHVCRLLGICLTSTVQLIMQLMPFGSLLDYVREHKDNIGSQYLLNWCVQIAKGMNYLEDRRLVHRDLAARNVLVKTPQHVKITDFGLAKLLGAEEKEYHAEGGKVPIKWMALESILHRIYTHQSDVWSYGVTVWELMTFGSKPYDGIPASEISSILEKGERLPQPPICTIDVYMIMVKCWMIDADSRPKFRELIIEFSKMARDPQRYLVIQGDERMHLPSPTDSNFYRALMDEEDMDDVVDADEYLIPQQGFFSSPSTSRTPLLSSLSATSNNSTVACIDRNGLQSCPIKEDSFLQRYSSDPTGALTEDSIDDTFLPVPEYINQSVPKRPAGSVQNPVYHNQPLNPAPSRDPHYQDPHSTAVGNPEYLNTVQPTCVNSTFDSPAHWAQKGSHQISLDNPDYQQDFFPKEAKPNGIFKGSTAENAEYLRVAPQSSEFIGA
Outline: as §1

[5] = target: EGFR del19/C797S (Homo sapiens, UniProt P00533, C797S/DEL746-750); assay: Biochemical EGFR kinase assay (Lance Ultra TR-FRET), double mutant del19/C797S
Chain of EGFR del19/C797S (P00533 with tags, fused parts or gaps DEL746-750/C797S): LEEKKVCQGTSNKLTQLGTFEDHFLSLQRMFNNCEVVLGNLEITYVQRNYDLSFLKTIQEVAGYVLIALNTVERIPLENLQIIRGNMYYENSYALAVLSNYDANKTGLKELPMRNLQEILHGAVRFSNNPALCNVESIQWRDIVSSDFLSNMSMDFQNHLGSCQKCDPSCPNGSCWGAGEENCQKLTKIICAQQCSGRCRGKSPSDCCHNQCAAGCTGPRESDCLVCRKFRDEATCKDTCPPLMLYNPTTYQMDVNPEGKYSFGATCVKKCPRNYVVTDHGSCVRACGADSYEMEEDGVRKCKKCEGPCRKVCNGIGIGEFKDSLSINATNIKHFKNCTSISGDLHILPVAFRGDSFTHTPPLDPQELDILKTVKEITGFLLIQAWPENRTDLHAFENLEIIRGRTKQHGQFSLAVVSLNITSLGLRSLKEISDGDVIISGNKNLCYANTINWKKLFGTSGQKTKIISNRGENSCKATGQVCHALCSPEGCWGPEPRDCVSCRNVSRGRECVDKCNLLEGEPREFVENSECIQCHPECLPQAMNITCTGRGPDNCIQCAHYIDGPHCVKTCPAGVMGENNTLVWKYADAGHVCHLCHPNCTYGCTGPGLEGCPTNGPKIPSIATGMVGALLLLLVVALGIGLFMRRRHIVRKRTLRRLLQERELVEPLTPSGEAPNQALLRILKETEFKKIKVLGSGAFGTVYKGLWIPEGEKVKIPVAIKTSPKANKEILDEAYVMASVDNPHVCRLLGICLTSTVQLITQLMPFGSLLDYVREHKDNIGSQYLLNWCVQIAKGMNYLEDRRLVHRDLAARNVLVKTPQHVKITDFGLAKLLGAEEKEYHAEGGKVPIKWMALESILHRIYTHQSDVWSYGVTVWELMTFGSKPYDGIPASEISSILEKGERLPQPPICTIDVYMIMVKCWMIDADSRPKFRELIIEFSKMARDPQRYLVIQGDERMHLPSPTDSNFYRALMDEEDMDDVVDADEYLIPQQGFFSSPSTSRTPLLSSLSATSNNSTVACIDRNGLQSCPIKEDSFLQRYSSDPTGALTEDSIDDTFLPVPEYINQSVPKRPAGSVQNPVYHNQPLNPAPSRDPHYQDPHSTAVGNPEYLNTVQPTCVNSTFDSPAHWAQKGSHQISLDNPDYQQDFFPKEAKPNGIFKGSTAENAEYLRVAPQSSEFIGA
Outline: as §1

[6] = Km ATP, read-out: IC50 L858R/C797S (nM) Km ATP
[7] = Km ATP, read-out: IC50 WT (nM) Km ATP
[8] = Km ATP, read-out: IC50 L858R/T790M/C797S (nM) Km ATP
[9] = Km ATP, read-out: IC50 del19/T790M/C797S (nM) Km ATP
[10] = Km ATP, read-out: IC50 del19/C797S (nM) Km ATP
[11] = IC50 L858R/C797S (nM) 100 μM ATP, 100 μM ATP
[12] = IC50 WT (nM) 100 μM ATP, 100 μM ATP
[13] = IC50 L858R/T790M/C797S (nM) 100 μM ATP, 100 μM ATP
[14] = IC50 del19/T790M/C797S (nM) 100 μM ATP, 100 μM ATP
[15] = IC50 del19/C797S (nM) 100 μM ATP, 100 μM ATP

Row | Structure (SMILES) | IC50 [1, 6] [nM] | IC50 [2, 7] [nM] | IC50 [3, 8] [nM] | IC50 [4, 9] [nM] | IC50 [5, 10] [nM] | IC50 [1, 11] [nM] | IC50 [2, 12] [nM] | IC50 [3, 13] [nM] | IC50 [4, 14] [nM] | IC50 [5, 15] [nM] | IC50 ([1]; read-out: IC50 L858R/C797S (nM) 100 μM ATP, 100 μM ATP) [nM] | IC50 ([2]; read-out: IC50 WT (nM) 100 μM ATP, 100 μM ATP) [nM] | IC50 ([3]; read-out: IC50 L858R/T790M/C797S (nM) 100 μM ATP, 100 μM ATP) [nM] | IC50 ([4]; read-out: IC50 del19/T790M/C797S (nM) 100 μM ATP, 100 μM ATP) [nM] | IC50 ([5]; read-out: IC50 del19/C797S (nM) 100 μM ATP, 100 μM ATP) [nM]
1 | C=CCn1cc(-c2nccc(Nc3cc(N[C@H]4CC[C@@](C)(O)CC4)c(-c4ccn(C(F)F)n4)cn3)n2)cn1 [Example 116, (1s,4s)-4-((2-((2-(1-Allyl-1H-pyrazol-4-yl)pyrimidin-4-yl)amino)-5-(1-(difluoromethyl)-1H-pyrazol-3-yl)pyridin-4-yl)amino)-1-methylcyclohexan-1-ol] | 5 | 77.2 | 0.7 | 0.6 | 27.6 | – | – | – | – | – | – | – | – | – | –
2 | CN(CC(F)F)C[C@H]1CC[C@@H](Nc2cc(Nc3ccnc(-c4cnn(S(=O)(=O)C5CC5)c4)n3)ncc2-c2ccn(CC(F)F)n2)CC1 [Example 245, N^2-(2-(1-(Cyclopropylsulfonyl)-1H-pyrazol-4-yl)pyrimidin-4-yl)-N^4-((1s,4s)-4-(((2,2-difluoroethyl)(methyl)amino)methyl)cyclohexyl)-5-(1-(2,2-difluoroethyl)-1H-pyrazol-3-yl)pyridine-2,4-diamine] | – | – | – | – | – | 259 | > 10000 | 12.8 | 13.1 | 27.8 | – | – | – | – | –
3 | COc1ccc(-c2nccc(Nc3cc(N[C@H]4CC[C@@](C)(O)CC4)c(-c4ccn(C(F)F)n4)cn3)n2)cn1 [Example 165, (1s,4s)-4-((5-(1-(Difluoromethyl)-1H-pyrazol-3-yl)-2-((2-(6-methoxypyridin-3-yl)pyrimidin-4-yl)amino)pyridin-4-yl)amino)-1-methylcyclohexan-1-ol] | 884 | 6830 | 2.3 | 3 | 1260 | – | – | – | – | – | – | – | – | – | –
4 | O=S(=O)(C1CC1)n1cc(-c2nccc(Nc3cc(OC4CCC(OC(F)F)CC4)c(-c4cnn(C(F)F)c4)cn3)n2)cn1 (stereo not drawn) [Example 70, 2-(1-(Cyclopropylsulfonyl)-1H-pyrazol-4-yl)-N-(4-((4-(difluoromethoxy)cyclohexyl)oxy)-5-(1-(difluoromethyl)-1H-pyrazol-4-yl)pyridin-2-yl)pyrimidin-4-amine] | 57 | 1740 | 3.8 | 10.2 | 202 | 1490 | > 10000 | 13.5 | 9.7 | 190 | – | – | – | – | –
5 | CC(C)n1ccc(-c2cnc(Nc3ccnc(-c4cnn(S(=O)(=O)C5CC5)c4)n3)cc2N[C@H]2CC[C@@H](O)CC2)n1 [Example 82, (1s,4s)-4-((2-((2-(1-(Cyclopropylsulfonyl)-1H-pyrazol-4-yl)pyrimidin-4-yl)amino)-5-(1-isopropyl-1H-pyrazol-3-yl)pyridin-4-yl)amino)cyclohexan-1-ol] | – | – | – | – | – | – | – | – | – | – | 3.9 | 2410 | 1.8 | 1.7 | 2.1
6 | Cn1ccc(-c2cnc(Nc3ccnc(-c4cnn(S(=O)(=O)C5CC5)c4)n3)cc2NC2CCC(F)(CO)CC2)n1 (stereo not drawn) [Example 222, (4-((2-((2-(1-(Cyclopropylsulfonyl)-1H-pyrazol-4-yl)pyrimidin-4-yl)amino)-5-(1-methyl-1H-pyrazol-3-yl)pyridin-4-yl)amino)-1-fluorocyclohexyl)methanol] | 3.3 | 14.9 | 0.1 | 0.3 | 1.1 | 18.8 | > 10000 | 0.2 | 0.2 | 0.9 | – | – | – | – | –
7 | CC(C)Nc1cc(Nc2ccnc(-c3cnn(S(=O)(=O)C4CC4)c3)n2)ncc1-c1ccn(C(F)F)n1 [Example 144, N^2-(2-(1-(Cyclopropylsulfonyl)-1H-pyrazol-4-yl)pyrimidin-4-yl)-5-(1-(difluoromethyl)-1H-pyrazol-3-yl)-N^4-isopropylpyridine-2,4-diamine] | 12.5 | 687 | 0.7 | 1.2 | 24 | – | – | – | – | – | – | – | – | – | –
